# Experimental data reported in patent US11472774B2, “Anti-cancer compounds” (The University of Sydney, priority 2018, dated 2022).
# Molecular target: T1, porcine brain tubulin (Sus scrofa, UniProt P02550+P02554)
# T1 construct: purchased Cytoskeleton; host or cells: porcine brain tissue
# Assay: Fluorescence-based tubulin polymerization assay
# Type: biochemical
# Settings: compared to control (DMSO); 37° C.; FIG. 1 and FIG. 2
# Procedure: Fluorescence-based tubulin polymerization assay was conducted in a final volume of 55 μL using the Tubulin Polymerization Assay kit (Cytoskeleton, Colo., USA) as per manufacturer's instructions. Briefly, porcine brain tubulin was incubated with test compounds at 37° C. and fluorescence was measured using with Tecan M200 PRO+ microplate reader (Tecan, Switzerland) at 355 nm excitation and 460 nm emission.
# T1 sequence (P02550 whole entry): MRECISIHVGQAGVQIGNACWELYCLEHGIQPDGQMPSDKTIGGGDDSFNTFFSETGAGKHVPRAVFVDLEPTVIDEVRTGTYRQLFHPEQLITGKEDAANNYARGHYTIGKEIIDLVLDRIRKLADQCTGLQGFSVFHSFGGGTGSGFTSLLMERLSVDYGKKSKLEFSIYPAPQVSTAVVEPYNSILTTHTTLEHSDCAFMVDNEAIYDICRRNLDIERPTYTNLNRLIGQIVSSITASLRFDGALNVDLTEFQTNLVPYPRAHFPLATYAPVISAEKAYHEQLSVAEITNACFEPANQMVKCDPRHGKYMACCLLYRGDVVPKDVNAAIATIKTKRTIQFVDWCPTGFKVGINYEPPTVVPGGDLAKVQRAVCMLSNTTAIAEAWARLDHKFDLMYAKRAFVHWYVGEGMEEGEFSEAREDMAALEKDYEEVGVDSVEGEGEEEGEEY
# T1 sequence (P02554 whole entry): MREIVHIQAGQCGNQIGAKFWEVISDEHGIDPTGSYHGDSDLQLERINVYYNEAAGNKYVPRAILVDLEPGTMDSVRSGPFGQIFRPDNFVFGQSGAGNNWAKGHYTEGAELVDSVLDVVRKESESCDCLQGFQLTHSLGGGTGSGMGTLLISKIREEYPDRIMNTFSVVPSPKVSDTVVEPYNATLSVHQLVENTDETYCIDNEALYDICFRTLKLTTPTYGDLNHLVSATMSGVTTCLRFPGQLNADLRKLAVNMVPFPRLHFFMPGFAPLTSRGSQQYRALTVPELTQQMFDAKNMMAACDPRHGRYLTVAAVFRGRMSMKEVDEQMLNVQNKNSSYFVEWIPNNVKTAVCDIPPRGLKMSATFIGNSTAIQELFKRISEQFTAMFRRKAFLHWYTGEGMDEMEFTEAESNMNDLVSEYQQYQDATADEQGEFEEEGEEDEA
row,effect on tubulin polymerization,Structure (SMILES)
1,inhibited tubulin polymerization,"O=C(NCCCc1ccc(-c2ccccc2F)cc1)c1cccnc1 [WJA88, N-(3-(2′-Fluoro-[1,1′-Biphenyl]-4-yl)Propyl)Nicotinamide]"
2,inhibited tubulin polymerization,CC[C@]1(O)C[C@@H]2CN(CCc3c([nH]c4ccccc34)[C@@](C(=O)OC)(c3cc4c(cc3OC)N(C)[C@H]3[C@@](O)(C(=O)OC)[C@H](OC(C)=O)[C@]5(CC)C=CCN6CC[C@]43[C@@H]65)C2)C1 [vinblastine]
3,enhanced tubulin polymerization,CC(=O)O[C@H]1C(=O)[C@@]2(C)[C@H]([C@H](OC(=O)c3ccccc3)[C@]3(O)C[C@H](OC(=O)[C@H](O)[C@@H](NC(=O)c4ccccc4)c4ccccc4)C(C)=C1C3(C)C)[C@]1(OC(C)=O)CO[C@@H]1C[C@@H]2O [paclitaxel]
4,inhibited tubulin polymerization,"O=C(CCCc1ccc(-c2ccccc2F)cc1)Nc1cccnc1 [WJA69b, 4-(2′-fluoro-[1,1′-biphenyl]-4-yl)-N-(pyridin-3-yl)butanamide]"
